“Also recorded” adds a separate entry of the source.
Key:
IL-6 = assay: LPS+PHA-induced IL-6 secretion in whole blood under oxidative stress (H2O2); type: cell-based, human; details: absence or presence of H2O2 (1 and 10 mM)
Description: FIG. 12 Effect of ATP on LPS+PHA-induced IL-6 secretion in whole blood from healthy subjects under conditions of oxidative stress. Two concentrations of H2O2 (1 and 10 mM) were added to whole blood, together with the indicated concentrations of ATP. Then, blood was exposed to 10 μg/ml LPS and 1 μg/ml PHA, and incubated for 24 h. The IL-6 released into the supernatants was analyzed using the ELISA method. […] Data are expressed at the mean values; error bars represent SEM.
Whole blood of healthy subjects was collected as described for Experiment 2, and pre-incubated with 1 or 10 mM H2O2 at 5% CO2 and 37° C. for 15 min. Then, ATP was added to the blood at final concentrations of 1-300 μM for the 30 min incubation step, and then incubated as in Experiment 2 with LPS/PHA for 24 hours.

TNF-α/IL-10 ratio = TNF-α/IL-10 ratio in whole blood from patients with oxidative stress-related diseases; type: cell-based, human; details: for reduction in the TNF-α/IL-10 ratio: 300 μM ATP
Description: (§1) FIG. 15 Effect of ATP on the ratio of TNF-α/IL-10 secretion in whole blood from a patient with oxidative stress-related disease. […] In both experiments, TNF-α and IL-10 released into the supernatants was analyzed using the ELISA method. Results are expressed in percentage, 100% being the TNF-α/IL-10 ratio without ATP (control).
as §1, with “16” for “15”, “(control). Both in untreated and in LPS-PHA stimulated blood, the ratio of TNF-α/IL-10 release from whole blood was reduced by the addition of ATP.” for “(control).”
FIG. 17 Effect of ATP on the ratio of TNF-α/IL-10 secretion in whole blood from a patient with oxidative stress-related disease. […] TNF-α and IL-10 released into the supernatants was analyzed using the ELISA method. Results are expressed in percentage, 100% being the TNF-α/IL-10 ratio without ATP (control). The ratio of TNF-α/IL-10 release from whole blood was reduced by the addition of ATP.
This experiment was performed to test the effects of ATP ex vivo in whole blood collected from patients with oxidative stress-related diseases, both without and with LPS+PHA stimulation of cytokine production. Whole blood from 3 patients with different oxidative stress-related diseases was collected as described for experiment 2, and incubated for 24 hours at 5% CO2 and 37° C., with ATP added at a final concentration 300 μM, or no ATP (control). Cytokine production was measured as in Experiment 2. Results were expressed as the TNF-α/IL-10 ratio relative to the control condition (no ATP).

[1] = system: guinea pig alveolar macrophages; assay: Guinea pig alveolar macrophages incubated with LPS and spin-trap DMPO; type: cell-based
From the text: As mentioned above, ATP is known to enhance the oxidative burst of neutrophils and other phagocytic cells. […] In a study using guinea pig alveolar macrophages (according to (35, 36)) we confirmed the ATP dependent increase in H2O2 formation. […] This finding underlines the importance and practical relevance of the present invention that ATP attenuates of hydroxyl radical DMPO adduct formation in a more chemically oriented set-up. Our finding that the formation of the DMPO—OH adducts is inhibited by the presence of ATP, also in incubations with alveolar macrophages, is of great promise for the protective effect of ATP in diseases and conditions in which oxidative stress plays a predominant role, as discussed on the previous pages.

[2] = ATP infusions in pre-terminal cancer patients; type: in vivo, human
Description: Patients with different diseases received infusions of 10-75 μg/kg·min over 8-24 h, at intervals of 1-4 weeks in different randomized clinical trials. In all cases, the first. infusion was given under clinical supervision, subsequent infusions were given in the setting of private homes. Preliminary results in small numbers of patients with persistent rheumatoid arthritis, chronic fatigue syndrome, and cancer in the pre-terminal stage, and lung cancer during curative radiotherapy are given below.
This study was performed in patients of different tumour types with a life expectation of between 8 and 12 weeks. Patients received a maximum of 8 ATP infusions (8 h) at an infusion rate of max. 50 μg/kg·min. […] These subjective improvements were supported by objective outcome assessment using validated questionnaires for self-reliance (Groningen Activity Restriction Scale, GARS), fatigue (Short Fatigue Questionnaire, Smets et al.), and appetite (visual analogue scale, VAS). Below, some of the major effects in these five patients are summarized. Patient 1 (non-small-cell lung cancer): Despite a very low ATP dose (=20-30 μg/kg·min), this patient spontaneously reported that they felt more energetic. Before the study, the patient was not able to independently dress, undress, get in/out of bed, to get out of a chair, or to wash their hands, face or body. After 8 weeks of ATP, the patient was able to perform all of these activities independently. Over 8 weeks, their appetite improved markedly: EORTC-QLQ-30 (4-point scale): improvement from 4 to 1, and on VAS [0-100 mm], from 13 to 63 before lunch, and from 17 to 70 before dinner. The patient's treating pulmonologist concluded a “miraculous improvement” over the 8-week treatment period. On request of the patient, ATP infusions were continued. Patient 2 (primary liver carcinoma): This patient, who suffered from marked anorexia, spontaneously reported that they were “eating again like a building worker” after 8 weeks of ATP treatment. […] Furthermore, the patient felt less tired within 2 weeks of starting ATP infusions. Patient 3 (melanoma): This patient reported marked improvement in appetite. This was confirmed by outcome assessment (VAS), in addition, marked amelioration in fatigue and self reliance was found. After 8 infusion, the patient pledged to continue the ATP infusions. […] After 5 infusions, the patient decided that they felt so much better that they wanted to continue the infusions after the study. Patient 5 (pancreas cancer; study still ongoing): After 4 infusions, the patient noted to feel much more energetic.

[3] = Randomized clinical trial of ATP in advanced non-small-cell lung cancer (prior art); type: in vivo, human; details: unpublished data 2005

Nc1ncnc2c1ncn2[C@@H]1O[C@H](COP(=O)(O)OP(=O)(O)OP(=O)(O)O)[C@@H](O)[C@H]1O [ATP, Adenosine 5′-triphosphate]
effect on LPS+PHA-induced IL-6 release (IL-6): no effect; also recorded: not influenced
reduction in the TNF-α/IL-10 ratio (TNF-α/IL-10 ratio; patient blood stimulated with LPS+PHA, depending on the patient): 40-80%
reduction in the TNF-α/IL-10 ratio (TNF-α/IL-10 ratio; patient blood without LPS+PHA): 60-80%
effect on ratio of TNF-α/IL-10 release (TNF-α/IL-10 ratio; patient blood, untreated and/or LPS+PHA-stimulated): markedly reduced
effect on H2O2 formation [1]: increase
effect on DMPO—OH adduct formation ([1]; macrophages incubated with LPS): inhibited
appetite VAS [0-100 mm] before dinner ([2]; Patient 1, before): 17 mm
appetite VAS [0-100 mm] before lunch ([2]; Patient 1, before): 13 mm
appetite, EORTC-QLQ-30 (4-point scale) ([2]; Patient 1, before): 4
appetite VAS [0-100 mm] before dinner ([2]; Patient 1, over 8 weeks of ATP): 70 mm
appetite VAS [0-100 mm] before lunch ([2]; Patient 1, over 8 weeks of ATP): 63 mm
appetite, EORTC-QLQ-30 (4-point scale) ([2]; Patient 1, over 8 weeks of ATP): 1
appetite VAS (0-100) ([2]; Patient 2, before): 20
appetite VAS (0-100) ([2]; Patient 2, within 4 weeks): 95
fatigue, 7-point scale (mean of four items of SFQ) ([2]; Patient 4, after 4 weeks of ATP infusions): 5.8
fatigue, 7-point scale (mean of four items of SFQ) ([2]; Patient 4, before): 2.8
patients spontaneously reporting marked improvements ([2]; patients who had completed >4 ATP infusions): 5 out of 19
effect on blood sedimentation rate [3]: neither an effect

Reference: US20090215713A1, “Use of atp for the manufacture of a medicament for the prevention and treatment of oxidative stress and related conditions” (priority 2004, published 2009)
